Experimental findings from patent publication US20250161232A1, “RETINOL FORMULATION (VI)” (DSM IP Assets B.V., priority 2022, published 2025) are described below.

The nature of the data set: Storage stability of retinol formulations at 40° C. (retinol content after storage). Format: physicochemical. Conditions: storage at 40° C. Here is the method: To determine the stability of these formulations, they were stored (at 40° C.) for 2 weeks and 12 weeks. And the loss of retinol was measure (the initial value was 100%).

On to `CC1=C(/C=C/C(C)=C/C=C/C(C)=C/CO)C(C)(C)CCC1` [retinol, Retinol], for which the “cis/trans ratio of the retinol during storage (in words)” value is given as “stable”.
